# Reference: patent publication US7683051B2, “Crystalline polymorph of bazedoxifene acetate” (Wyeth, priority 2004, dated 2010)
# Assays:
# [1] = test system: ovariectomized rat model of osteopenia; settings: cited from earlier work
# [2] = test system: MCF-7 cell line (human breast cancer cell line); settings: MCF-7 human breast cancer cell line; cited from earlier work
# [3] = test system: uterine response; settings: preclinical models of uterine stimulation; cited from earlier work
# [4] = acetic acid
# [5] = physchem; settings: EtOH/EtOAc/Tol, organic solvent or mixture, Solubility-Org (EtOH/EtOAc/Tol)
# [6] = acetic acid; remark: listed apart in the source
Solubility-Water [4] [mg/mL],solubility [5] [mg/mL],Solubility-Org (EtOH/EtOAc/Tol) [6] [mg/mL],SMILES,effect on bone loss [1],effect on cholesterol [1],estrogen agonist/antagonist behaviour in MCF-7 cells [2],stimulation of uterine response [3]
–,–,–,"Cc1c(-c2ccc(O)cc2)n(Cc2ccc(OCCN3CCCCCC3)cc2)c2ccc(O)cc12 [bazedoxifene acetate, 1-[4-(2-azepan-1-yl-ethoxy)-benzyl]-2-(4-hydroxy-phenyl)-3-methyl-1H-indol-5-ol acetic acid]",estrogen agonist-like effect in preventing bone loss,reducing cholesterol,behaves as an estrogen antagonist,little or no stimulation of uterine response
0.49,24.5,–,"Cc1c(-c2ccc(O)cc2)n(Cc2ccc(OCCN3CCCCCC3)cc2)c2ccc(O)cc12 [Form A, 1-[4-(2-azepan-1-yl-ethoxy)-benzyl]-2-(4-hydroxy-phenyl)-3-methyl-1H-indol-5-ol acetic acid]",–,–,–,–
0.23,–,12.4,"Cc1c(-c2ccc(O)cc2)n(Cc2ccc(OCCN3CCCCCC3)cc2)c2ccc(O)cc12 [Form B, 1-[4-(2-azepan-1-yl-ethoxy)-benzyl]-2-(4-hydroxy-phenyl)-3-methyl-1H-indol-5-ol acetic acid]",–,–,–,–
